Data published in patent US9737607B2, “Polymer, and pharmaceutical composition employing the same” (INDUSTRIAL TECHNOLOGY RESEARCH INSTITUTE, priority 2014, dated 2017).

What was measured:
[1] = system: Sal. Typhimurium TA98 strain; experiment: Ames test, TA98; details: without S9, positive control 100 μL/plate
Method: (§1) The Ames test was carried out using Sal. Typhimurium TA98 strain and Sal. Typhimurium TA100 strain without an enzyme for activating metabolism of drugs (S9).
(§2) The Ames test was carried out using Sal. Typhimurium TA98 strain and Sal. Typhimurium TA100 strain with an enzyme for activating metabolism of drugs (S9). DMSO (100 μL/plate) was used as negative control, and (+)Benzo[α]pyrene (100 μL/plate) was used as positive control.

[2] = system: Sal. Typhimurium TA100 strain; experiment: Ames test, TA100; details: without S9, positive control 100 μL/plate
Method: as §1, §2

**Q.** With `Nc1ccc([N+](=O)[O-])cc1N` [NOPD, 4-nitro-o-phenylenediamine] as the molecule, how does the “TA98 (CFU/plate)” value [1] read?
**A.** 1200 CFU/plate

**Q.** And the “TA100 (CFU/plate)” value [2]?
**A.** 1019 CFU/plate
